pEC50: −log10 of the molar value. Read-outs that look alike come from different tables or passages of the source. Square brackets hold non-standard residues; d marks the D form. Ends that are not written are not given here. Peptide text beside a SMILES is read from it.
Biological target: T1, human CMKLR1 (Homo sapiens, UniProt Q99788)
T1 construct: host or cells: HEK293A (Invitrogen), stably expressing human Gα15
T1 sequence (Q99788 1-373): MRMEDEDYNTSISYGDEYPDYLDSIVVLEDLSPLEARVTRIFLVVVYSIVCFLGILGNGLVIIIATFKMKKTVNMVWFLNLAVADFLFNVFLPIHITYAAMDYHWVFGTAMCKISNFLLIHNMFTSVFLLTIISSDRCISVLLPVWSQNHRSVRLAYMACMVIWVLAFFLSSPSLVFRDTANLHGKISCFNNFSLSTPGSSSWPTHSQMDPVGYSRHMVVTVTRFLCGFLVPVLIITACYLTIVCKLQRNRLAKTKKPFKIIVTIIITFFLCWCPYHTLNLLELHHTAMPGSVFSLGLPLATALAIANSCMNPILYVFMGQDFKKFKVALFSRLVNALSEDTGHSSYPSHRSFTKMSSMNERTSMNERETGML
Assay: Ca2+ mobilization (CellLux imaging) agonist assay in HEK293A cells expressing CMKLR1 and Gα15
Format: cell-based
Conditions: for pEC50: NR where no EC50 is given, read-out: EC50
Method: HEK293A cells (Invitrogen) expressing CMKLR1 and Gα15 were seeded at 5*10^4 cells/well in a poly-D-lysine coated 96-well black well/clear bottom plate (BD Falcon) and cultured overnight. From eighteen to twenty-four hours later, cells were loaded with FLUO4-AM (Invitrogen). Then the cells were washed two times with C1 solution (130 mM NaCl, 5 mM KCl, 10 mM HEPES pH 7.4, 2 mM CaCl2, and 10 mM Glucose). After the final wash, a 100 µL of residual volume remained on the cells. Peptides were dissolved in 10% DMSO to a concentration of 1 mM and were diluted in C1 solution with 0.1 % BSA. They were aliquoted as 2x solutions in 96-well plates and were simultaneously transferred by the robotic system within the imager from the ligand plate to the cell plate. […] Fluorescence data was generated in duplicate and experiments were repeated for at least three times. […] For the calculation of concentration-response curves, signals of two wells receiving the same concentration of test substances were averaged and the fluorescence changes of corresponding buffer C1 wells were subtracted. Signals were normalized to background fluorescence. For the calculation of EC50 values, plots of amplitude versus concentrations were prepared in SigmaPlot 11.

[1] = Ca2+ mobilization, CMKLR1, decimal comma

Row | max response [1] | pEC50 [1] | Compound | max response
1 | 1,73 DF/F0 | – | CC(C)C[C@H](NC(=O)[C@@H](N)Cc1ccc(O)cc1)C(=O)N1CCC[C@H]1C(=O)NCC(=O)N[C@@H](CCC(N)=O)C(=O)N[C@@H](Cc1ccc(O)cc1)C(=O)N[C@@H](C)C(=O)N[C@@H](Cc1ccccc1)C(=O)N[C@H](CO)C(=O)O [compound 81] (H-YLPGQYAF[dS]-OH; N-terminus assumed) | –
2 | 0,9 DF/F0 | 5.38 | CC(C)C[C@H](NC(=O)[C@H]1CCCN1C(=O)CNC(=O)[C@H](Cc1ccccc1)NC(=O)[C@H](CC(C)C)NC(=O)[C@@H](N)Cc1ccccc1)C(=O)N[C@@H](C)C(=O)N[C@@H](CC(C)C)C(=O)N1CCC[C@@H]1C(=O)O [compound 116] (H-FLFG[dP]LAL[dP]-OH; N-terminus assumed) | –
3 | 0,44 DF/F0 | 4.68 | WFPGQYAYS-NH2 [compound 23] | –
4 | 1,59 DF/F0 | 5.75 | CC(C)C[C@H](NC(=O)[C@@H](N)Cc1ccccc1)C(=O)N1CCC[C@H]1C(=O)NCC(=O)N[C@@H](CCC(N)=O)C(=O)N[C@@H](Cc1ccccc1)C(=O)N[C@@H](C)C(=O)N[C@@H](Cc1ccccc1)C(=O)N1CCC[C@@H]1C(=O)O [compound 110] (H-FLPGQFAF[dP]-OH; N-terminus assumed) | –
5 | 0,64 DF/F0 | 4.89 | FYPGQWAYS-NH2 [compound 20] | –
6 | 1,7 DF/F0 | 6.52 | CC(C)C[C@H](NC(=O)[C@H](Cc1ccc(O)cc1)NC(=O)[C@@H](Cc1ccccc1)NC(=O)[C@@H]1CCCN1C(=O)[C@H]1CCCN1C(=O)[C@@H]1CCCN1C(=O)[C@H](CC(C)C)NC(=O)[C@@H](N)Cc1ccc(O)cc1)C(=O)N1CCC[C@H]1C(=O)O [compound 152] (H-YLP[dP]P[dF]YLP-OH; N-terminus assumed) | –
7 | 0,42 DF/F0 | 5.02 | C[C@H](NC(=O)[C@H](Cc1ccc(O)cc1)NC(=O)[C@@H](CCC(N)=O)NC(=O)CNC(=O)[C@@H]1CCCN1C(=O)[C@@H](Cc1ccc(O)cc1)NC(=O)[C@@H](N)Cc1ccc(O)cc1)C(=O)N[C@@H](Cc1ccc(O)cc1)C(=O)N[C@@H](CO)C(N)=O [compound 19] (H-Y[dY]PG[dQ]YAYS-NH2; N-terminus assumed) | –
8 | 0,30 DF/F0 | 4.78 | C[C@H](N)C(=O)N[C@H](Cc1c[nH]c2ccccc12)C(=O)N1CCC[C@H]1C(=O)NCC(=O)N[C@@H](CCC(N)=O)C(=O)N[C@@H](Cc1ccccc1)C(=O)N[C@@H](C)C(=O)N[C@H](Cc1ccc(O)cc1)C(=O)N[C@@H](CO)C(N)=O [compound 21] (H-A[dW]PGQFA[dY]S-NH2; N-terminus assumed) | –
9 | 1,13 DF/F0 | – | CC(C)C[C@H](NC(=O)[C@H](N)Cc1ccc(O)cc1)C(=O)N1CCC[C@H]1C(=O)NCC(=O)N[C@@H](CCC(N)=O)C(=O)N[C@@H](Cc1ccc(O)cc1)C(=O)N[C@@H](C)C(=O)N[C@@H](Cc1ccccc1)C(=O)N[C@@H](Cc1ccccc1)C(=O)O [compound 43] (H-[dY]LPGQYAFF-OH; N-terminus assumed) | –
10 | 0,61 DF/F0 | 4.67 | CC(C)C[C@H](NC(=O)[C@@H](Cc1ccccc1)NC(=O)[C@H]1CCCN1C(=O)[C@H](CC(C)C)NC(=O)[C@H](C)NC(=O)[C@H](Cc1ccc(O)cc1)NC(=O)[C@H]1CCCN1C(=O)[C@H](CC(C)C)NC(=O)[C@H](N)Cc1ccccc1)C(=O)O [compound 118] (H-[dF]L[dP]YAL[dP][dF]L-OH; N-terminus assumed) | –
11 | 0,73 DF/F0 | 5.91 | FLPGQFAFK-OH [compound 67] | –
12 | 1,76 DF/F0 | 6.71 | C[C@H](NC(=O)[C@H](CO)NC(=O)[C@H](Cc1ccccc1)NC(=O)[C@H](C)NC(=O)[C@H](Cc1ccccc1)NC(=O)[C@H](CCC(N)=O)NC(=O)[C@@H](N)Cc1ccccc1)C(=O)N[C@@H](Cc1ccccc1)C(=O)N[C@H](CO)C(=O)O [compound 103] (H-FQFAFSAF[dS]-OH; N-terminus assumed) | –
13 | 0,67 DF/F0 | 5.93 | FPPGQGAFK-OH [compound 66] | –
14 | 1,04 DF/F0 | 7.28 | YFPGQFAFQ-OH [compound 50] | –

Further lines, the compound ahead of its results:

Row | Compound | max response [1] | pEC50 [1] | max response
15 | YYPGQYAYS-NH2 [compound 17] | 1,09 DF/F0 | 5.36 | –
16 | YFPGNFAFS-OH [compound 32] | – | – | 0,89 DF/F0
17 | YFPGQFAFK-NH2 [compound 2] | 1,84 DF/F0 | 7.43 | –
18 | CSCC[C@H](NC(=O)[C@@H](N)Cc1ccc(O)cc1)C(=O)N1CCC[C@H]1C(=O)NCC(=O)N[C@@H](CCC(N)=O)C(=O)N[C@@H](Cc1ccccc1)C(=O)N[C@@H](C)C(=O)N[C@@H](Cc1ccccc1)C(=O)N[C@H](CO)C(=O)O [compound 40] (H-YMPGQFAF[dS]-OH; N-terminus assumed) | – | – | 0,74 DF/F0
19 | CC[C@H](C)[C@H](NC(=O)CNC(=O)[C@@H]1CCCN1C(=O)[C@H](Cc1ccccc1)NC(=O)[C@@H](N)Cc1ccc(O)cc1)C(=O)N[C@@H](Cc1ccccc1)C(=O)N[C@@H](C)C(=O)N[C@H](Cc1ccccc1)C(=O)N[C@@H](CO)C(N)=O [compound 10] (H-YFPGIFA[dF]S-NH2; N-terminus assumed) | 1,48 DF/F0 | 5.65 | –
20 | NC(=O)CC[C@H](NC(=O)CNC(=O)[C@@H]1CCCN1C(=O)[C@H](Cc1ccccc1)NC(=O)[C@H](N)Cc1ccccc1)C(=O)N[C@@H](Cc1c[nH]c2ccccc12)C(=O)NCC(=O)N[C@@H](Cc1ccccc1)C(=O)N[C@@H](CO)C(N)=O [compound 12] (H-[dF]FPGQWGFS-NH2; N-terminus assumed) | 1,56 DF/F0 | 5.52 | –
21 | C[C@H](NC(=O)[C@H](Cc1ccccc1)NC(=O)[C@H](CCC(N)=O)NC(=O)[C@H]1CCCN1C(=O)CNC(=O)[C@H](Cc1ccccc1)NC(=O)[C@@H](N)Cc1ccc(O)cc1)C(=O)N[C@@H](Cc1ccccc1)C(=O)N[C@@H](CO)C(N)=O [compound 14] (H-YFG[dP]QFAFS-NH2; N-terminus assumed) | 1,34 DF/F0 | 5.46 | –
22 | YFPGQWAWS-NH2 [compound 9] | 1,61 DF/F0 | 5.73 | –
23 | YFPGYFAFG-NH2 [compound 11] | 1,41 DF/F0 | 5.58 | –
24 | CC(C)C[C@H](NC(=O)[C@@H](N)Cc1ccc(O)cc1)C(=O)N1CCC[C@H]1C(=O)NCC(=O)N[C@@H](CCC(N)=O)C(=O)N[C@@H](Cc1ccccc1)C(=O)N[C@@H](C)C(=O)N[C@@H](Cc1ccccc1)C(=O)N[C@H](CO)C(=O)O [compound 33] | – | – | 0,51 DF/F0
25 | CC[C@@H](C)[C@@H](NC(=O)[C@H](Cc1ccccc1)NC(=O)[C@H](CCC(N)=O)NC(=O)CNC(=O)[C@@H]1CCCN1C(=O)[C@H](Cc1ccccc1)NC(=O)[C@H](N)Cc1c[nH]c2ccccc12)C(=O)N[C@@H](Cc1ccccc1)C(=O)N[C@@H](CO)C(N)=O [compound 18] (H-[dW]FPGQF[dI]FS-NH2; N-terminus assumed) | 1,40 DF/F0 | 5.15 | –
26 | NC(=O)CC[C@H](NC(=O)CNC(=O)[C@@H]1CCCN1C(=O)[C@@H](Cc1ccccc1)NC(=O)[C@H](N)Cc1ccccc1)C(=O)N[C@@H](Cc1ccccc1)C(=O)NCC(=O)N[C@H](Cc1ccc(O)cc1)C(=O)N[C@H](CC(N)=O)C(N)=O [compound 15] (H-[dF][dF]PGQFG[dY][dN]-NH2; N-terminus assumed) | 1,47 DF/F0 | 5.46 | –

— publication PMC3351444, “Molecular Evolution of a Peptide GPCR Ligand Driven by Artificial Neural Networks” (PLoS ONE, 2012)
